Like-named read-outs stand apart in the source and are kept apart here.
Tests used:
[1] = tested on: maximal electroshock-induced seizures (MES); assay: Maximal electroshock-induced seizure (MES) test; type: in vivo; details: mice; for ED50: Mus musculus, po, 0.5 h; for MES (ED50 mg/kg): 30 min
Description: Mice were restrained by gripping the loose skin on their dorsal surface and saline-coated corneal electrodes were held lightly against the two cornea. […] A tonic seizure was defined as a hindlimb extension in excess of 90 degrees from plane of the body.
4-(3,4-Methylenedioxyphenoxy)benzaldehyde semicarbazone was administered orally to mice 30 min before the test procedure. […]

Na^+ channel Site 1 = type: binding; details: [^3H] saxitoxin, rat forebrain membranes
Na^+ channel Site 2 = type: binding; details: [^3H] batrachotoxin, rat forebrain membranes
[2] = tested on: voltage-sensitive Na^+ channels; assay: Electrophysiological assay: whole-cell patch-clamp of Na^+ currents in acutely dissociated hippocampal neurons; type: cell-based, rat
Description: Cell preparation: Acute cultures of rat hippocampal neurons were prepared daily using a modification of procedures described previously (Kuo and Bean, Mol. Pharm. 46:716-725 (1994)). Briefly, hippocampi were isolated from 3-11 day old rat pup brains (Sprague-Dawley; Charles River) and were sectioned, by hand, into 0.5 - 1 mm thick transverse slices (Whittemore and Koerner, Eur. J. Pharm. 192:435-438 (1991)). Slices were incubated for at least 30 min at room temperature (20 - 24 °C) in an oxygenated medium (124 mM NaCl, 3.3 mM KCl, 2.4 mM MgSO4, 2.5 mM CaCl2, 1.2 mM KH2PO4, 26 mM NaHCO3, pH = 7.4) continuously bubbled with 5% CO2 / 95 % O2. […]
Patch-clamp recordings of voltage-sensitive Na^+ currents: Whole-cell voltage-clamp recordings were made using conventional patch-clamp technique (Hamill et al., Pfluegers Arch. 391:85-100 (1981)) with an Axopatch 200A amplifier (Axon Instruments, Foster City, CA). […] Currents were recorded at room temperature (22-25°C), filtered at 5 kHz with 4-pole Bessel filter, digitized at 20-50-µs intervals, and stored using Digidata 1200 analog/digital interface with Pclamp6/Clampex software (Axon Instruments). […] The inhibitory potency of drugs was assessed by measuring reductions in the peak amplitude of Na^+ currents induced by increasing concentrations of compounds tested. […]

formalin test in mice = assay: Formalin test (antinociceptive activity, time licking/biting injected paw); type: in vivo; details: Mus musculus
Description: Analgesic activity of 4-(4-fluorophenoxy)benzaldehyde semicarbazone was assessed in the formalin test. The method of Hunskaar, et al., J. Neurosci. Method 14:69-76 (1985), was used with some modifications as described in the following.
Mice were placed in Plexiglas jars for at least 1 h to accommodate to experimental conditions. Following the accommodation period, mice were weighed and injected with 4-(4-Fluorophenoxy)benzaldehyde semicarbazone by i.p. or p.o. administration. Control mice were injected with saline (10 ml/kg). Fifteen min (i.p.) or 30 min (p.o.) following 4-(4-fluorophenoxy)benzaldehyde semicarbazone administration mice were injected with formalin ([…] of 5% formaldehyde solution in saline) into the dorsal surface of the right hand paw. Mice were immediately transferred to the Plexiglas jars and the amount of time that each mouse spent licking and/or biting the injected paw was recorded for every 5-min period over the 1 h observation period. The data presented here are at 0-5 min (early phase) and from 5-60 min (late phase) following formalin injections. The late phase of the formalin test is the average of eleven 5-min periods.
The compound has a potency of ED50 about 5-10 mg/kg by both routes of administration.

[3] = determined as described in example 38, read-out: MES (ED50 mg/kg)
[4] = determined as described in example 38

CN(NCc1ccc(Oc2ccc(F)cc2)cc1)C(N)=O [2'-methyl-4-(4-flourophenoxy)phenylmethylsemicarbazide]
ED50 [1, 3]: 3.2 mg/kg

NC(=O)NNCc1ccc(Oc2ccc(F)cc2)cc1 [4-(4-fluorophenoxy)phenylmethylsemicarbazide]
MES (ED50 mg/kg) [1, 4]: 4.2 mg/kg

NC(=O)NN=Cc1ccc(OC2CCCCCC2)cc1 [4-cycloheptoxybenzaldehyde semicabazone, 4-Cycloheptyloxybenzaldehyde semicarbazone]
ED50 [1, 3]: 3.2 mg/kg

NC(=O)NN=Cc1ccc(-c2ccc(F)cc2)c(F)c1 [3-fluoro-4-(4-fluorophenyl)benzaldehyde semicarbazone]
ED50 [1, 3]: 3 mg/kg

NC(=O)NN=Cc1ccc(Oc2ccc3c(c2)OCO3)cc1 [4-(3,4-methylenedioxyphenoxy)benzaldehyde semicarbazone]
ED50 ([1]; read-out: ED50 (the dose provided protection of 50% of animals), administered orally 30 min before the test): 5.3 mg/kg | ED50 [1, 3]: 3.4 mg/kg

4-(4-fluorophenyl)benzaldehyde 2'-methylsemicarbazone
MES (ED50 mg/kg) [1, 4]: 1.5 mg/kg

CCN(CC)CC(=O)Nc1c(C)cccc1C [Lidocaine, reference compound]
IC50 (Na^+ channel Site 1): > 100 µM | IC50 (Na^+ channel Site 2): 29.9 µM

CCCCOc1ccc(Oc2ccc(C=NNC(N)=O)cc2)cc1 [4-(4-butoxyphenoxy)benzaldehyde semicarbazone]
ED50 [1, 3]: 14.9 mg/kg

CN(N=Cc1ccc(Oc2ccc(F)cc2)c(F)c1)C(N)=O [4-(4-Fluorophenoxy)-3-fluorobenzaldehyde 2'-methylsemicarbazone]
ED50 [1, 3]: 0.9 mg/kg

NC(=O)NN=Cc1ccc(Oc2ccc3c(c2)CCC3)cc1 [4-(5-indanoxy)benzaldehyde semicarbazone, 4-(5-Indanoxy)benzaldehyde semicarbazone]
ED50 [1, 3]: 1.7 mg/kg

NC(=O)NN=Cc1ccc(Oc2ccc(F)cc2)cc1 [4-(4-fluorophenoxy)benzaldehyde semicarbazone]
effect on Na^+ currents ([2]; concentrations between 0.1 - 10 µM, holding membrane voltage of -100 mV): very little effect | Kd ([2]; for inactivated Na^+ channels, read-out: apparent antagonist dissociation constant (Kd)): ~0.6 µM | IC50 (Na^+ channel Site 1): > 100 µM | IC50 (Na^+ channel Site 2): 22 µM | ED50 (formalin test in mice; ip, 0.25 h, i.p., formalin 15 min after administration): 5 to 10 mg/kg | ED50 (formalin test in mice; po, 0.5 h, p.o., formalin 30 min after administration): 5 to 10 mg/kg | ED50 [1, 3]: 1.6 mg/kg

From patent publication EP1568690A1, “The use of carbocyclic and heterocyclic substituted semicarbazones and thiosemicarbazones as sodium channel blockers” (Euro-Celtique S.A., priority 1997, dated 1998)
